Patent US20240270762A1, “PENICILLIN-BINDING PROTEIN INHIBITORS” (priority 2021, published 2024)
Converted amounts (≈) assume the structure as drawn.

Key:
N. gonorrhoeae FA1090 = assay: Liquid broth MIC in Fastidious broth; settings: Neisseria gonorrhoeae, FA1090, read-out: Minimum Inhibitory Concentration (MIC), N. gonorrhoeae FA 1090
N. gonorrhoeae WHO G = assay: Liquid broth MIC in Fastidious broth; settings: Neisseria gonorrhoeae, read-out: Minimum Inhibitory Concentration (MIC), N. gonorrhoeae WHO G
[1] = target: T1, PBP3 from Pseudomonas aeruginosa (PAO1) (Pseudomonas aeruginosa, UniProt G3XD46); assay: Bocillin-FL fluorescence polarization competition binding, P. aeruginosa PBP3; settings: Binding affinity to P. aeruginosa PBP3; fluorescence polarization competition binding assay using Bocillin-FL; read-out: P. aeruginosa PBP3 Potency
T1 construct: made in house
T1 sequence (G3XD46 whole entry): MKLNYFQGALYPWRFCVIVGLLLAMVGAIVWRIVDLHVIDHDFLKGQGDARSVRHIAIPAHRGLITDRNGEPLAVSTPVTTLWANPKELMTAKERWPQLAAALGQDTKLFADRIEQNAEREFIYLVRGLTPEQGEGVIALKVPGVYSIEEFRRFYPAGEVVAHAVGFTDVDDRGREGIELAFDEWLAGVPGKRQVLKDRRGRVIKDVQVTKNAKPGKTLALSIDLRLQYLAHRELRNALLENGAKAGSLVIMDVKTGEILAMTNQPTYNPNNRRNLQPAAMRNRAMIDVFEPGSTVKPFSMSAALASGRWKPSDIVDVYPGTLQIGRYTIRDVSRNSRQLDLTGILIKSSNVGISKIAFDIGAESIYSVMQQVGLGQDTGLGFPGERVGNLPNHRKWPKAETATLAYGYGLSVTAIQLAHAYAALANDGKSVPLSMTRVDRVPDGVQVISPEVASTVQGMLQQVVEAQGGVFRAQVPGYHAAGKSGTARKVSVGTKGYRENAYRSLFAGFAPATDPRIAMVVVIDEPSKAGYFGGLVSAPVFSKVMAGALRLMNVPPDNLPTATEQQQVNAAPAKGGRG
How it was run: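 Purified PBPs pre-incubated with inhibitor (E. coli PBP3 1.5 μM, 30 min; P. aeruginosa PBP3 0.75 μM, A. baumannii PBP1a 1 μM and PBP3 0.2 μM, 15 min), then Bocillin-FL 0.1 μM (0.05 μM for PBP1a) added; FP read up to 60 min. EC50 = concentration halving bound Bocillin-FL.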

E. coli AG100 = assay: microbe, parasite or virus in culture; type: cell-based; settings: Escherichia coli, AG100, read-out: MIC E. coli AG100
N. gonorrhoeae WHO X = assay: Liquid broth MIC in Fastidious broth; settings: Neisseria gonorrhoeae, read-out: Minimum Inhibitory Concentration (MIC), N. gonorrhoeae WHO X
P. aeruginosa ATCC 27853 = assay: microbe, parasite or virus in culture; type: cell-based; settings: Pseudomonas aeruginosa, ATCC27853, read-out: MIC P. aeruginosa ATCC 27853
[2] = test system: P. aeruginosa (ΔmexAB-oprM); assay: Broth microdilution MIC in CAMHB; type: cell-based; settings: Pseudomonas aeruginosa; read-out: MIC P. aeruginosa ΔmexAB-oprM
K. pneumoniae 848844 = assay: microbe, parasite or virus in culture; type: cell-based; settings: Klebsiella pneumoniae, 848844, read-out: MIC K. pneumoniae 848844

Row | SMILES | MIC (N. gonorrhoeae FA1090) [µg/mL] | MIC (N. gonorrhoeae WHO G) [µg/mL] | IC50 [1] [µM] | MIC (E. coli AG100) [µg/mL] | MIC (N. gonorrhoeae WHO X) [µg/mL] | MIC (P. aeruginosa ATCC 27853) [µg/mL] | MIC [2] [µg/mL] | MIC (K. pneumoniae 848844) [µg/mL]
1 | O=C(O)c1cccc2c1OB(O)[C@@H](NC(=O)[C@@H](NC(=O)c1cnc3sccn3c1=O)c1ccc(P(=O)(O)O)cc1)C2 (single isomer, unassigned) [Example 194] | 1 to 2 (≈ 1.67 to 3.34 µM) | 4 to 8 (≈ 6.69 to 13.4 µM) | < 10 | > 128 | 16 to 32 (≈ 26.7 to 53.5 µM) | > 128 | 32 to 64 (≈ 53.5 to 107 µM) | > 128
2 | CS(=O)(=O)N1CCN(C(=O)N[C@@H](C(=O)N[C@H]2Cc3cccc(C(=O)O)c3OB2O)c2cc(F)c(P(=O)(O)O)c(F)c2)C1=O (single isomer, unassigned) [Example 18] | < 1 | < 1 | < 10 | 32 to 64 (≈ 49.5 to 99 µM) | < 1 | > 128 | 32 to 64 (≈ 49.5 to 99 µM) | > 128
3 | O=C(N[C@@H](C(=O)N[C@H]1Cc2cccc(C(=O)O)c2OB1O)c1ccc(P(=O)(O)O)cc1)c1ccc(O)c(O)c1Cl [Example 49, (R)-3-((R)-2-(2-chloro-3,4-dihydroxybenzamido)-2-(4-phosphonophenyl)acetamido)-2-hydroxy-3,4-dihydro-2H-benzo[e][1,2]oxaborinine-8-carboxylic acid] |  |  | > 250 |  |  |  |  | 
4 | O=C(NCCN1CCN(C(=O)NC(C(=O)N[C@H]2Cc3ccc(F)c(C(=O)O)c3OB2O)c2ccc(P(=O)(O)O)cc2)C(=O)C1=O)c1ccc(O)c(O)c1Cl (stereo partly drawn) [Example 120, (3R)-3-(2-(4-(2-(2-chloro-3,4-dihydroxybenzamido)ethyl)-2,3-dioxopiperazine-1-carboxamido)-2-(4-phosphonophenyl)acetamido)-7-fluoro-2-hydroxy-3,4-dihydro-2H-benzo[e][1,2]oxaborinine-8-carboxylic acid] |  |  | < 10 |  |  |  |  | 
5 | O=C(O)c1c(F)ccc2c1OB(O)[C@@H](NC(=O)C(NC(=O)N1CCN(Cc3ccc(O)c(O)c3Cl)C(=O)C1=O)c1ccc(P(=O)(O)O)cc1)C2 (stereo partly drawn) [Example 8, (3R)-3-(2-(4-(2-chloro-3,4-dihydroxybenzyl)-2,3-dioxopiperazine-1-carboxamido)-2-(4-phosphonophenyl)acetamido)-7-fluoro-2-hydroxy-3,4-dihydro-2H-benzo[e][1,2]oxaborinine-8-carboxylic acid] | < 1 | < 1 | < 10 |  | 4 to 8 (≈ 5.44 to 10.9 µM) | < 1 | < 1 | > 128
6 | O=C(O)c1c(F)ccc2c1OB(O)[C@@H](NC(=O)C(NC(=O)N1CCN(Cc3cc(F)c(O)c(O)c3Cl)C(=O)C1=O)c1ccc(P(=O)(O)O)cc1)C2 (stereo partly drawn) [Example 45, (3R)-3-(2-(4-(2-chloro-5-fluoro-3,4-dihydroxybenzyl)-2,3-dioxopiperazine-1-carboxamido)-2-(4-phosphonophenyl)acetamido)-7-fluoro-2-hydroxy-3,4-dihydro-2H-benzo[e][1,2]oxaborinine-8-carboxylic acid] | < 1 | < 1 | < 10 |  | 4 to 8 (≈ 5.31 to 10.6 µM) |  |  | 
7 | O=C(O)c1cccc2c1OB(O)[C@@H](NC(=O)C(NC(=O)N1CCN(Cc3ccc(O)c(O)c3Cl)C(=O)C1=O)c1ccc(P(=O)(O)O)cc1)C2 (stereo partly drawn) [Example 24, (3R)-3-(2-(4-(2-chloro-3,4-dihydroxybenzyl)-2,3-dioxopiperazine-1-carboxamido)-2-(4-phosphonophenyl)acetamido)-2-hydroxy-3,4-dihydro-2H-benzo[e][1,2]oxaborinine-8-carboxylic acid] | < 1 | < 1 | < 10 |  | 16 to 32 (≈ 22.3 to 44.6 µM) |  |  | 
8 | O=C(O)c1c(F)ccc2c1OB(O)[C@@H](NC(=O)C(NC(=O)N1CCN(Cc3ccc(O)c(O)c3Cl)C1=O)c1ccc(P(=O)(O)O)cc1)C2 (stereo partly drawn) [Example 46, (3R)-3-(2-(3-(2-chloro-3,4-dihydroxybenzyl)-2-oxoimidazolidine-1-carboxamido)-2-(4-phosphonophenyl)acetamido)-7-fluoro-2-hydroxy-3,4-dihydro-2H-benzo[e][1,2]oxaborinine-8-carboxylic acid] | < 1 | < 1 | < 10 |  | 1 to 2 (≈ 1.41 to 2.83 µM) |  |  | 
9 | O=C(O)c1c(F)ccc2c1OB(O)[C@@H](NC(=O)C(NC(=O)N1CCN(Cc3ccc(O)c(O)c3Cl)C(=O)C1=O)c1ccc(P(=O)(O)O)c(F)c1)C2 (stereo partly drawn) [Example 23, (3R)-3-(2-(4-(2-chloro-3,4-dihydroxybenzyl)-2,3-dioxopiperazine-1-carboxamido)-2-(3-fluoro-4-phosphonophenyl)acetamido)-7-fluoro-2-hydroxy-3,4-dihydro-2H-benzo[e][1,2]oxaborinine-8-carboxylic acid] | < 1 | < 1 | < 10 |  | 1 to 2 (≈ 1.33 to 2.66 µM) |  |  | 
